Consider 4 compounds from US20100291596A1, “SCREENING METHOD FOR AGENTS SUITABLE FOR THERAPY OF ALZHEIMER'S DISEASE” (FREIE UNIVERSITAT BERLIN, priority 2007, published 2010).

In data set [1] the target is T1, gamma-secretase (Homo sapiens, UniProt P49768).
T1 construct: HEK293 expressing SPA4CT-YFP were spread into a 96-well dish and were treated with NSAIDs or controls for 6 h; endogenous in cells; host or cells: HEK293 (ATCC CRL-1573)
The experiment in a line: Confocal laser scanning microscopy of subcellular distribution of APP-CTF-YFP in HEK293 cells expressing SPA4CT-YFP. Format: cell-based. To be noted: 6 h. The method, then:
HEK293 cells were transiently transfected with SPA4CT-YFP. After 24 h, cells were treated with varying concentrations (indicated in the figures) of different NSAIDs, gamma-secretase inhibitor N-[N-(3,5-difluorophenacetyl-L-alanyl)]-S-phenylglycine t-butyl ester (DAPT) or vehicle control for 6 h. The subcellular distribution of APP-CTF-YFP within living cells was analyzed by confocal laser scanning microscopy (LSM).
(i) Cells expressing a fusion protein comprising the substrate of gamma-secretase (APP-CTF) and a fluorescent protein (fp) are incubated with the drug candidate in a 96 well plate. Prior to addition to the cells, the drug is dissolved in EtOH or DMSO. Controls are (1) untreated culture medium, (2) culture medium containing EtOH or DMSO, and (3) culture medium with known inhibitors of gamma-secretase. After incubation for 6 h to 24 hours the fluorescence is determined. If gamma-secretase is active, the fusion protein is degraded and the fluorescent protein spreads in the cell, e.g., the cell cytoplasm. As a consequence, intensive fluorescence is not detectable. If the gamma-secretase is inhibited, the substrate of gamma-secretase accumulates at the plasma membrane resulting in an intensive (and traceable) fluorescence (see, for further experimental details and results FIGS. 1 and 1.II and the figure legend). […]

Data set [2] deals with T1, gamma-secretase. The experiment in a line: Quantification of gamma-secretase inhibition: average YFP fluorescence of HEK293 cells expressing APP-CTF-YFP. Format: cell-based. Particulars: 6 h. Here is the method: To quantify the effects of NSAIDs on gamma-secretase activity, HEK293 expressing SPA4CT-YFP were spread into a 96-well dish and were treated with NSAIDs or controls for 6 h. Intensity of YFP fluorescence was quantified with adjusted filters in a 96-well fluorescence reader (company BertholdTech, Mithras). (i) Cells expressing a fusion protein comprising the substrate of gamma-secretase (APP-CTF) and a fluorescent protein (fp) are incubated with the drug candidate in a 96 well plate. Prior to addition to the cells, the drug is dissolved in EtOH or DMSO. Controls are (1) untreated culture medium, (2) culture medium containing EtOH or DMSO, and (3) culture medium with known inhibitors of gamma-secretase. After incubation for 6 h to 24 hours the fluorescence is determined. If gamma-secretase is active, the fusion protein is degraded and the fluorescent protein spreads in the cell, e.g., the cell cytoplasm. As a consequence, intensive fluorescence is not detectable. If the gamma-secretase is inhibited, the substrate of gamma-secretase accumulates at the plasma membrane resulting in an intensive (and traceable) fluorescence (see, for further experimental details and results FIGS. 1 and 1.II and the figure legend). Drug candidates which inhibit the biological activity (i.e. cleavage of the substrate) of gamma-secretase are discarded.

Data set [3] concerns SH-SY5Y cells. The experiment in a line: MTS assay of viable SH-SY5Y cells for determination of cytotoxicity. Format: cell-based, human. Particulars: 24 h. Here is the method: SH-SY5Y cells expressing SPA4CT wt were spread at a density of 30.000 cells per 96-well. The cell culture media (OptiMEM, Invitrogen or serum containing medium, Biochrom) were supplemented with NSAIDs in varying concentrations as well as positive controls (without treatment or vehicle control) and negative controls (0.01% to 0.5% Triton X-100). Each well was incubated with 100 μl of supplemented media for 24 h. Then, 20 μl of the MTS stain solution (Promega, cell viability assay) was added and after 2-4 h incubation time the absorbance at 562 nm was measured.
(§1) (ii) Initially, the cytotoxicity of the compounds in cultures of neuronal cells is determined using a cell proliferation assay or an assay based on viable cells (FIG. 2). Then, APP-CTF, APP or APPsw (APPsw: APP with the familial AD mutation “swedish” (K670N M671L); APP-CTF: APP-C-terminal fragment; CTF: after alpha- or beta-secretase cleavage) expressing cells are incubated with the drug candidate (two different concentrations, 96 well plate format). After incubation for 6 to 24 h the amount of Abeta42 secreted from the cell culture medium is determined using ELISA (see, for further experimental details and results FIG. 3 and the figure legend). Drug candidates causing a reduction of the amount of Abeta42 are assayed in a further step comprising ELISA and MALDI-MS. First, the amounts of Abeta40 and Abeta38 (as well as additional possible Abeta species) are quantified by use of ELISA. Then, the entire spectrum of secreted Abeta species is assayed using immunoprecipitation and MALDI-MS analysis (see, for further experimental details and results FIG. 4 and the figure legend). Compounds leading to reduced amounts of Abeta42 and increased amounts of shorter Abeta species are selected and assayed in a further screening step.
(In general: Tetrazolium dyes change colour on reduction, which living cells bring about.)

The target in data set [4] is T2, transmembrane sequence Abeta29-42 wt (Homo sapiens, UniProt P05067).
T2 construct: the amino acid residues 29-42 of the Abeta region ([…]); expressed in transfected cells; host or cells: E. coli FHK12
Put plainly: ToxR system: dimerization of transmembrane sequence Abeta29-42 wt. It is filed as cell-based. Here is the method:
ToxR-system E. coli FHK12 cells were transformed with accordant DNA constructs encoding for ToxR-fusionproteins containing at least a part of the APP transmembrane sequence (e.g. sequence Abeta 29-42). Cells were grown in either FHK medium or minimal medium (e.g. M9 medium) supplemented with NSAIDs and corresponding vehicle controls for 6 h. Then, aliquots of the cells were lysed and beta-galactosidase activity was measured (Langosch et al., 1996).
The second screening step is carried out in order to find compounds selectively modulating only the processing of APP via binding to the transmembrane sequence (TMS) of APP. The APP-GxxxG motif is, inter alia, a perfect target structure for selecting compounds characterized by high affinity binding (Munter et al., EMBO J. 26 (2007), 1702-12). In the bacterial assay system (ToxR system) only the transmembrane sequence of APP containing the amino acid residues 29-42 of the Abeta region (GAIIGLMVGGVVIA) is expressed as part of a fusion protein. […] The rate of transcription correlates with the degree of dimerization and can be determined by measuring the conversion of a coloured substrate. […] After incubation for 2 to 24 h the degree of dimerization is determined. Binding of compounds to the amino acid sequence Abeta 29-42 results in weakening of dimerization and this is determined by measuring the decrease of enzymatic activity. […]

The subject of data set [5] is Abeta species secreted from SH-SY5Y cells which stably express wild type APP. Put plainly: ELISA quantification of Abeta species secreted from SH-SY5Y cells stably expressing wild type APP. Format: cell-based, human. To be noted: APP wt, 6 h. Here is the method:
(§2) Quantification of Abeta 42, Abeta 40 and Abeta38 with ELISA Stably transfected cells were plated at a density of 2.8×10^5 cells per 12-well. The day after splitting, 200 μl of fresh media supplemented with NSAIDs or control vehicles were added and incubated for 6 h. For Abeta40 and Abeta42-specific ELISAs, 50 μl of media were analyzed according to the manufacturer's instruction (The Genetics company (TGC), Basel, Switzerland). The same protocol was applied to determine Abeta38 levels, except that the antibody BAP-29 (provided by M. Brockhaus, Roche, Basel, Switzerland) was used.
as §1
(In general: ELISA stands for enzyme-linked immunosorbent assay.)

For data set [6], the system named is Abeta species from APP G33A-transfected cells. Put plainly: ELISA quantification of Abeta species secreted from APP G33A-transfected cells. Format: cell-based. The method, then: as §2
The effect of the drugs on the dimerization motif GxxxG of TMS of APP is assayed. Drug candidates were added to the cell culture medium containing APP-CTF, APP or APPsw expressing neuronal cells or cells containing the APP-processing machinery as described in Example 2. In addition, cell lines were assayed expressing altered APP molecules characterized by a mutated GxxxG motif. Binding of the compounds to the APP GxxxG motif results in an altered processing only of the wild type proteins, but not the altered GxxxG motif of mutants (see, for further experimental details and results FIG. 5 and the figure legend).
Detection and characterization of the binding of the drug candidate to the GxxxG motif. Binding of the compounds to Abeta42 is verified by use of BIACORE and the KD-value is determined. Binding of the compounds to the GAIIG motif should lead to lack of binding to corresponding Abeta42-fragments or GxxxG mutant peptides. Similarly, using ELISA with synthetical peptides binding of NSAIDs can be determined via a competition assay (see, for further experimental details and results FIG. 6 and the figure legend).

Entries after “also recorded” stand apart in the source; their conditions may differ.

As to `C[C@H](NC(=O)Cc1cc(F)cc(F)c1)C(=O)N[C@H](C(=O)OC(C)(C)C)c1ccccc1` [DAPT, N-[N-(3,5-difluorophenacetyl-L-alanyl)]-S-phenylglycine t-butyl ester], in data set [1] (1 μM added to cell culture medium), the “Localization of APP-CTF-YFP (confocal images)” value is on record as “APP-CTF preferably accumulates at the plasma membrane”. Also, the “Average fluorescence compared to the DMSO control” value in data set [2] (1 μM) is reported as “increased fluorescence”.
For `CC(C)OC(=O)C(C)(C)Oc1ccc(C(=O)c2ccc(Cl)cc2)cc1` [Fenofibrate], the “Concentration at which compound is no longer toxic (MTS assay)” value in data set [3] came to 5 µM.
In the case of `CC(C)Cc1ccc(C(C)C(=O)O)cc1` (stereo not shown) [Ibuprofen], the “Concentration at which compound is no longer toxic (MTS assay)” value in data set [3] came to 250 µM. The “Stability of dimerization of the transmembrane sequence” value in data set [4] is given as “weakens the strength of dimerization”. Also, the “Average fluorescence compared to the DMSO control” value in data set [2] (50 μM) is given as “slight increase of fluorescence”.
With `CSc1ccc(/C=C2/C(C)=C(CC(=O)O)c3cc(F)ccc32)cc1` [sulindac sulfide], in data set [5], the “Secreted amount of Abeta38” value was “low and does not substantially reduce”; the “Secreted amount of Abeta40” value was “low and does not substantially reduce”; the “Secreted amount of Abeta42” value was “decreases in a concentration dependent manner; also recorded: reduces”. Also, the “Localization of APP-CTF-YFP (confocal images)” value in data set [1] (30 μM) was “APP-CTF preferably accumulates at the ER/nuclear membrane”. Moreover, the “Concentration at which compound is no longer toxic (MTS assay)” value in data set [3] turned out to be 150 µM. For the same compound, the “Stability of dimerization of the transmembrane sequence” value in data set [4] was “weakens the stability of dimerization of the transmembrane sequence of Abeta29-42 in a concentration dependent manner”. In data set [6], the “Secreted amount of Abeta38” value is listed as “does not substantially reduce”, the “Secreted amount of Abeta40” value was “does not substantially reduce” and the “Secreted amount of Abeta42” value is “no impact”. For the same compound, the “Average fluorescence compared to the DMSO control” value in data set [2] (50 μM) was “slight increase of fluorescence”.
